This note sets out measurements from patent publication US7759337B2, “Phthalazine compounds and methods of use” (Amgen Inc., priority 2005, dated 2010).

The assay has as its system production of TNF by monocytes activated with bacterial lipopolysaccharide (LPS). The assay is described as follows: Lipopolysaccharide-activated monocyte TNF production assay. It is filed as cell-based. The settings on record: Homo sapiens; whole blood monocyte assay (LPS induced TNF release). In outline:
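Adherent human PBMC-derived monocytes preincubated 60 min with nine two-fold compound dilutions, then stimulated with E. coli K532 LPS (30 ng/mL in the added medium) for 4 h at 37 °C. Supernatant TNF measured by sandwich ELISA; IC50 is the compound concentration halving TNF production, from second-order polynomial fits.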

A word on the IC50: it is the concentration at which inhibition is half-maximal. Higher therefore signals lower potency. Take `COc1cccc(-c2nncc3cc(-c4cc(C(N)=O)ccc4C)ccc23)c1OC` [Example 198, 3-[1-(2,3-dimethoxyphenyl)phthalazin-6-yl]-4-methylbenzamide]: the IC50 is at most 5 µM. `Cc1sc(C(=O)NC2CC2)cc1-c1ccc2c(N3CCOCC3)nncc2c1` [Example 80, N-Cyclopropyl-5-methyl-4-(1-morpholin-4-ylphthalazin-6-yl)thiophene-2-carboxamide] gave an IC50 of at most 5 µM. As for `Cc1ccc(C(=O)NC2CC2)cc1-c1ccc2c(N[C@@H](C)C(=O)OC(C)(C)C)nncc2c1` [Example 191, tert-butyl N-(6-{5-[(cyclopropylamino)carbonyl]-2-methylphenyl}phthalazin-1-yl)-L-alaninate], the IC50 was at most 5 µM.

`Cc1ccc(C(N)=O)cc1-c1ccc2c(N3CCNC(=O)C3)nncc2c1` [Example 116, 4-methyl-3-[1-(3-oxopiperazin-1-yl)phthalazin-6-yl]benzamide] came in with an IC50 of at most 5 µM. The value for `Cc1ccc(C(N)=O)cc1-c1ccc2c(-c3ccc(C(F)(F)F)cc3Cl)nncc2c1` [Example 199, 3-{1-[2-chloro-4-(trifluoromethyl)phenyl]phthalazin-6-yl}-4-methylbenzamide] was at most 5 µM; that for `Cc1ccc(C(N)=O)cc1-c1ccc2c(N3CCOCC3)nncc2c1` [Example 175, 4-methyl-3-(1-morpholin-4-ylphthalazin-6-yl)benzamide] was at most 5 µM. The value for `CNc1noc2c(-c3ccc4c(N5CCOC[C@@H]5C)nncc4c3)c(Cl)ccc12` [Example 15, 6-chloro-N-methyl-7-(1-((S)-3-methylmorpholino)phthalazin-6-yl)benzo[d]isoxazol-3-amine] was at most 5 µM; that for `Cc1ccc(C(=O)NC2CC2)cc1-c1ccc2c(N3CCCCC3)nncc2c1` [Example 159, N-cyclopropyl-4-methyl-3-(1-piperidin-1-ylphthalazin-6-yl)benzamide] was at most 5 µM. For the compound `Cc1ccc(C(N)=O)cc1-c1ccc2c(N3CCCC3=O)nncc2c1` [Example 94, 4-methyl-3-(1-(2-oxopyrrolidine-1-yl)phthalazin-6-yl)benzamide], the IC50 is at most 5 µM. The value for `COc1cc(F)ccc1-c1nncc2cc(-c3cc(C(=O)NC4CC4)ccc3C)ccc12` [Example 262, N-cyclopropyl-3-[1-(4-fluoro-2-methoxyphenyl)phthalazin-6-yl]-4-methylbenzamide] was at most 5 µM; that for `Cc1ccc(C(=O)NC2CC2)cc1-c1ccc2c(N3CCC[C@H]3C)nncc2c1` [Example 296, N-cyclopropyl-4-methyl-3-{1-[(2R)-2-methylpyrrolidin-1-yl]phthalazin-6-yl}benzamide] was at most 5 µM.

Compound `COCCNc1nncc2cc(-c3cc(C(N)=O)ccc3C)ccc12` [Example 189, 3-{1-[(2-methoxyethyl)amino]phthalazin-6-yl}-4-methylbenzamide] had an IC50 of at most 5 µM. `Cc1ccc(C(=O)NC2CC2)cc1-c1ccc2c(OC(C)C)nncc2c1` [Example 168, N-cyclopropyl-3-(1-isopropoxyphthalazin-6-yl)-4-methylbenzamide]: the IC50 is at most 5 µM.

For `Cc1ccc(-c2nncc3cc(-c4cc(C(N)=O)ccc4C)ccc23)c(Cl)c1` [Example 221, 3-[1-(2-chloro-4-methylphenyl)phthalazin-6-yl]-4-methylbenzamide], the IC50 was at most 5 µM. For `Cc1ccccc1-c1nncc2cc(Oc3cccc(Cl)c3)ccc12` [Example 338, 6-(3-chlorophenoxy)-1-(2-methylphenyl)phthalazine], the 50% inhibitory concentration (IC50) was at most 5 µM. In turn, `CCOc1ccc(-c2nncc3cc(-c4cc(C(N)=O)ccc4C)ccc23)c(Cl)c1` [Example 231, 3-[1-(2-chloro-4-ethoxyphenyl)phthalazin-6-yl]-4-methylbenzamide] displayed an IC50 of at most 5 µM. For `Cc1ccc(C(=O)NC2CC2)cc1-c1ccc2c(N3CCCOCC3)nncc2c1` [Example 266, N-cyclopropyl-4-methyl-3-[1-(1,4-oxazepan-4-yl)phthalazin-6-yl]benzamide], the IC50 was at most 5 µM.

Compound `COc1cc(F)ccc1-c1nncc2cc(-c3cc(C(N)=O)ccc3C)ccc12` [Example 213, 3-[1-(4-fluoro-2-methoxyphenyl)phthalazin-6-yl]-4-methylbenzamide] registered an IC50 of at most 5 µM. `Cc1ccc(C(=O)NC2CC2)cc1-c1ccc2c(N3CCCC3C)nncc2c1` (centres unmarked) [Example 105, N-cyclopropyl-4-methyl-3-(1-(2-methylpyrrolidin-1-yl)phthalazin-6-yl)benzamide] came in with an IC50 of at most 5 µM. Take `Cc1ccc(C(N)=O)cc1-c1ccc2c(Oc3cccnc3C)nncc2c1` [Example 300, 4-methyl-3-{1-[(2-methylpyridin-3-yl)oxy]phthalazin-6-yl}benzamide]: the IC50 is at most 5 µM. `Cc1ccc(C(N)=O)cc1-c1ccc2c(N3CCSCC3)nncc2c1` [Example 128, 4-methyl-3-(1-thiomorpholin-4-ylphthalazin-6-yl)benzamide] returned an IC50 of at most 5 µM.

As to `Cc1ccc(C(=O)NC2CC2)cc1-c1ccc2c(-c3ccccc3)nncc2c1` [Example 250, N-cyclopropyl-4-methyl-3-(1-phenylphthalazin-6-yl)benzamide], the IC50 was at most 5 µM.

For `Cc1ccc(C(=O)NC2CC2)cc1-c1ccc2c(N3CCC(=O)CC3)nncc2c1` [Example 58, N-cyclopropyl-4-methyl-3-[1-(4-oxopiperidin-1-yl)phthalazin-6-yl]benzamide], the IC50 was at most 5 µM.

As to `Cc1ccc2c(N)nsc2c1-c1ccc2c(N3CCOC[C@@H]3C)nncc2c1` [Example 367, 6-methyl-7-{1-[(3S)-3-methylmorpholin-4-yl]phthalazin-6-yl}-1,2-benzisothiazol-3-amine], the IC50 was at most 5 µM.

The compound `Cc1ccc(C(=O)NC2CC2)cc1-c1ccc2c(N3CCN4C(=O)OC[C@H]4C3)nncc2c1` [Example 99, 3-{1-[(8aR)-3-oxotetrahydro[1,3]oxazolo[3,4-a]pyrazin-7(1H)-yl]phthalazin-6-yl}-N-cyclopropyl-4-methylbenzamide] gave an IC50 of at most 5 µM.

Turning to `Cc1ccc(C(=O)NC2CC2)cc1-c1ccc2c(-c3ccc(-c4ccc(Cl)cc4)cc3)nncc2c1` [Example 208, 3-[1-(4′-chloro-1,1′-biphenyl-4-yl)phthalazin-6-yl]-N-cyclopropyl-4-methylbenzamide], the IC50 is at most 5 µM.

With `CNC(=O)c1ccc(C)c(-c2ccc3c(N4CCOCC4)nncc3c2)c1` [Example 181, N,4-dimethyl-3-(1-morpholin-4-ylphthalazin-6-yl)benzamide], the IC50 was at most 5 µM.

Turning to `Cc1ccc(C(=O)NC2CC2)cc1-c1ccc2c(OCC(C)(C)C)nncc2c1` [Example 326, N-cyclopropyl-4-methyl-3-[1-(neopentyloxy)phthalazin-6-yl]benzamide], the IC50 is at most 5 µM. With `Cc1ccc(C(N)=O)cc1-c1ccc2c(N3CCNC(=O)CC3)nncc2c1` [Example 277, 4-methyl-3-[1-(5-oxo-1,4-diazepan-1-yl)phthalazin-6-yl]benzamide], the IC50 is at most 5 µM.

`CS(=O)(=O)c1ccc(-c2nncc3cc(Oc4ccc(F)cc4)ccc23)cc1` [Example 335, 6-(4-fluorophenoxy)-1-[4-(methylsulfonyl)phenyl]phthalazine] yielded an IC50 of at most 5 µM. `Cc1cc(F)ccc1-c1nncc2cc(-c3ccc(Cl)c4c(NC5CC5)noc34)ccc12` [Example 382, 4-chloro-N-cyclopropyl-7-[1-(4-fluoro-2-methylphenyl)phthalazin-6-yl]-1,2-benzisoxazol-3-amine] returned an IC50 of at most 5 µM.

Take `Cc1ccc(C(=O)NC2CC2)cc1-c1ccc2c(C3=CCN(C(=O)OC(C)(C)C)CC3)nncc2c1` [Example 153, tert-butyl 4-(6-{5-[(cyclopropylamino)carbonyl]-2-methylphenyl}phthalazin-1-yl)-3,6-dihydropyridine-1(2H)-carboxylate]: the IC50 is at most 5 µM.

For the compound `Cc1ccc(C(=O)NC2CC2)cc1-c1ccc2c(C#N)nncc2c1` [Example 79, 3-(1-cyanophthalazin-6-yl)-N-cyclopropyl-4-methylbenzamide], the IC50 is at most 5 µM. Compound `Cc1cc(F)ccc1-c1nncc2cc(Oc3ccc(F)cc3)ccc12` [Example 341, 1-(4-fluoro-2-methylphenyl)-6-(4-fluorophenoxy)phthalazine] yielded an IC50 of at most 5 µM. Consider `Cc1cnc(C(=O)NC2CC2)cc1-c1ccc2c(N3C[C@@H](C)OC[C@H]3C)nncc2c1` [Example 113, N-cyclopropyl-4-{1-[(2R,5R)-2,5-dimethylmorpholin-4-yl]phthalazin-6-yl}-5-methylpyridine-2-carboxamide], for which the IC50 is at most 5 µM.

On to `CONC(=O)c1ccc(C)c(-c2ccc3c(N4CCOCC4)nncc3c2)c1` [Example 278, N-methoxy-4-methyl-3-(1-morpholin-4-ylphthalazin-6-yl)benzamide], for which the IC50 is at most 5 µM. In the case of `Cc1ccc(C(N)=O)cc1-c1ccc2c(N3C[C@H](C)OC[C@@H]3C)nncc2c1` [Example 119, 3-{1-[(2S,5S)-2,5-dimethylmorpholin-4-yl]phthalazin-6-yl}-4-methylbenzamide], the IC50 was at most 5 µM. The value for `COc1ncc(-c2nncc3cc(-c4cc(C(=O)NC5CC5)ccc4C)ccc23)c(OC)n1` [Example 234, N-cyclopropyl-3-[1-(2,4-dimethoxypyrimidin-5-yl)phthalazin-6-yl]-4-methylbenzamide] was at most 5 µM; that for `Cc1ccc(C(=O)NC2CC2)cc1-c1ccc2c(N3CCN(C)CC3)nncc2c1` [Example 23, N-cyclopropyl-4-methyl-3-(1-(4-methylpiperazin-1-yl)phthalazin-6-yl)benzamide] was at most 5 µM.

In turn, `Cc1ccc(C(=O)NC2CCC2)cc1-c1ccc2c(N(C)C)nncc2c1` [Example 283, N-cyclobutyl-3-[1-(dimethylamino)phthalazin-6-yl]-4-methylbenzamide] had an IC50 of at most 5 µM. The value for `CC(=O)N1CCN(c2nncc3cc(-c4cc(C(N)=O)ccc4C)ccc23)[C@@H](C)C1` [Example 383, 3-{1-[(2S)-4-acetyl-2-methylpiperazin-1-yl]phthalazin-6-yl}-4-methylbenzamide] was at most 5 µM.
